Experimental data: US8058285B2, “Substituted pyrido [3′, 2′: 4, 5] thieno [3, 2-D] pyrimidines and pyrido [3′, 2′: 4, 5] furo [3, 2-D] pyrimidines used as inhibitors of the PDE-4 and/or the release of TNF-ALPHA” (The Medicines Company (Leipzig) GmbH, priority 2004, dated 2011)
Structures can show the parent of a compound that is named as a salt.

Each compound was assayed on TNFα release (assay: LPS-induced TNFα release in diluted human blood (ELISA)). Details: LPS 1 μg/ml, human blood diluted 1:5, 24 h; read-out: IC50 value in the TNFα inhibitory assay.
Assay type: cell-based
Excerpt: Isolated leukocytes can be stimulated for the release of cytokines in different ways. Lipopolysaccharides (LPS) are a stimulus for the investigation of the TNFα release. LPS is part of bacterial cell walls and is released when the bacteria are killed (by antibiotics or the natural immune system). LPS stimulates in particular the activity of phagocytizing leukocytes (tissue macrophages, granulocytes, monocytes) and causes the infiltration of leukocytes from the peripheral blood into the affected tissue. A cytokine of special significance for these mechanisms is TNFα which is secreted in large amounts by the affected cells. The main source are here monocytes and macrophages. TNFα initiates and prolongs the inflammatory process in cooperation with other mediators.
For the investigation of the effect on the LPS-induced TNFα release a method was used which was described by Marx, D., Tassabehji, M., Heer, S., Hüttenbrink, K.-B., and I. Szelenyi, Pulmonary Pharmacology & Therapeutics (2002) 15, 7-15. The method is briefly: Human blood was taken from various donors, rendered incoagulable by the addition of 10 mM Na citrate and diluted 1:5 with RPMI 1640 cell culture medium. The test substances were added to the blood samples at various concentrations. 15 min later, the leukocytes were stimulated by the addition of lipopolysaccharides (LPS) from Salmonella abortus equi at a final concentration of 1 μg/ml. After the incubation of the test batches at 37° C. and under 5% CO2 in a water-saturated air for 24 h, the blood was centrifuged and the TNFα concentration in the cell-free supernatant was accurately measured using a purchasable ELISA (BD Biosciences) according to the manufacturer's instructions.

CCOc1nc(N2CCNCC2)c2sc3nc(-c4ccc(OC)cc4)cc(C)c3c2n1 [2-Ethoxy-7-(4-methoxy-phenyl)-9-methyl-4-(piperazin-1-yl)-pyrido[3′,2′:4,5]thieno[3,2-d]pyrimidine] and CCOc1nc(N2CCNCC2)c2sc3nc(C)cc(-c4ccccc4)c3c2n1 [2-Ethoxy-7-methyl-9-phenyl-4-(piperazin-1-yl)-pyrido[3′,2′:4,5]thieno[3,2-d]pyrimidine-hydrochloride] cannot be ordered by IC50: less than 2000 nM for the first, less than 2000 nM for the second.

CCCOc1nc(N2CCNCC2)nc2c1sc1nc(-c3ccccc3)cc(C)c12 [9-Methyl-7-phenyl-2-(piperazin-1-yl)-4-n-propoxy-pyrido[3′,2′:4,5]thieno[3,2-d]pyrimidine] and CCOc1nc(N2CCNCC2)nc2c1sc1nc(-c3cc[n+]([O-])cc3)cc(C(F)(F)F)c12 [4-Ethoxy-7-(1-oxy-pyridin-4-yl)-2-(piperazin-1-yl)-9-trifluoromethyl-pyrido[3′,2′:4,5]thieno[3,2-d]pyrimidine] cannot be ordered by IC50: less than 2000 nM for the first, less than 2000 nM for the second.

For CCOc1nc(N2CCNCC2)nc2c1sc1nc(-c3ccc(C(N)=O)cc3)cc(C(F)(F)F)c12 [4-(4-Ethoxy-9-trifluoromethyl-2-piperazin-1-yl-pyrido[3′,2′:4,5]thieno[3,2-d]pyrimidin-7-yl)-benzamide trifluoroacetate], the IC50 was less than 2000 nM.

These compounds were tested against T1, PDE-4A (Homo sapiens, UniProt P27815) (assay: PDE-4A inhibitory assay (SPA)). Details: not given.
T1 construct: PDE-4A catalytic domain comprising amino acids 342-704; made in house; host or cells: Escherichia coli
T1 sequence (P27815 342-704): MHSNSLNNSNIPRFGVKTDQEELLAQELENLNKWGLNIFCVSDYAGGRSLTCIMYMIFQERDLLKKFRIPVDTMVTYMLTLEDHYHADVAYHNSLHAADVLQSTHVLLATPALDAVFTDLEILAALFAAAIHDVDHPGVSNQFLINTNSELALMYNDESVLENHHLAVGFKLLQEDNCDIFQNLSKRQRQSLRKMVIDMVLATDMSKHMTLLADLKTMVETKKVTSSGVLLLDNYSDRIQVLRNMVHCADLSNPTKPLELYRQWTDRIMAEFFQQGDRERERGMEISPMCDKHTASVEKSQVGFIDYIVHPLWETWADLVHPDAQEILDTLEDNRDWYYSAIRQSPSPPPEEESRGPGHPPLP
Assay type: biochemical
In short: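 Human recombinant PDE-4A catalytic domain (aa 342-704), E. coli-expressed. SPA with 1 μM [^3H]-cAMP substrate in 100 mM Tris-HCl pH 7.5, 5 mM MgCl2, 1% DMSO; 20 min at 22° C. Non-specific activity with 100 μM rolipram subtracted.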

CCOc1nc(N2CCNCC2)c2sc3nc(-c4ccc(OC)cc4)cc(C)c3c2n1 [2-Ethoxy-7-(4-methoxy-phenyl)-9-methyl-4-(piperazin-1-yl)-pyrido[3′,2′:4,5]thieno[3,2-d]pyrimidine] and CCOc1nc(N2CCNCC2)c2sc3nc(-c4ccc(C)cc4)cc(C)c3c2n1 [2-Ethoxy-9-methyl-7-(4-methyl-phenyl)-4-(piperazin-1-yl)-pyrido[3′,2′:4,5]thieno[3,2-d]pyrimidine] fall in the same range of IC50: 2 to 50 nM for the first, 2 to 50 nM for the second.

CCCOc1nc(N2CCNCC2)nc2c1sc1nc(-c3ccccc3)cc(C)c12 [9-Methyl-7-phenyl-2-(piperazin-1-yl)-4-n-propoxy-pyrido[3′,2′:4,5]thieno[3,2-d]pyrimidine] and CCOc1nc(N2CCNCC2)nc2c1sc1nc(-c3cccs3)cc(C)c12 [4-Ethoxy-9-methyl-7-thien-2-yl-2-(piperazin-1-yl)-pyrido[3′,2′:4,5]thieno[3,2-d]pyrimidine] fall in the same range of IC50: 2 to 50 nM for the first, 2 to 50 nM for the second.

CCOc1nc(N2CCNCC2)nc2c1sc1nc(-c3cc[n+]([O-])cc3)cc(C(F)(F)F)c12 [4-Ethoxy-7-(1-oxy-pyridin-4-yl)-2-(piperazin-1-yl)-9-trifluoromethyl-pyrido[3′,2′:4,5]thieno[3,2-d]pyrimidine] and CCOc1nc(N2CCNCC2)nc2c1sc1nc(-c3ccccn3)cc(C(F)(F)F)c12 [4-Ethoxy-2-piperazin-1-yl-7-(2-pyridyl)-9-trifluoromethyl-pyrido[3′,2′:4,5]thieno[3,2-d]pyrimidine] fall in the same range of IC50: 2 to 50 nM for the first, 2 to 50 nM for the second.

First: CCOc1nc(N2CCNCC2)nc2c1sc1nc(-c3ccccc3)c(Cc3ccc([N+](=O)[O-])cc3)c(C)c12 [4-Ethoxy-9-methyl-8-(4-nitro-benzyl)-7-phenyl-2-(piperazin-1-yl)-pyrido[3′,2′:4,5]thieno[3,2-d]pyrimidine]
Second: CCOc1nc(N2CCNCC2)nc2c1sc1nc(-c3ccc(-c4ccco4)cc3)nc(C)c12 [4-Ethoxy-7-(4-[2-furyl]-phenyl)-9-methyl-2-piperazin-1-yl-thieno[2,3-d:4,5-d′]dipyrimidine]
The IC50 of the first is higher: 2 to 50 nM for the first, less than 2 nM for the second. The second is the more potent here.

First: CCOc1nc(N2CCNCC2)nc2c1sc1nc(-c3ccc(-c4ccc(C(=O)O)cc4N)cc3)nc(C)c12 [2′-Amino-4-(4-ethoxy-9-methyl-2-piperazin-1-yl-thieno[2,3-d:4,5-d′]dipyrimidin-7-yl)-biphenyl-4′-carboxylic acid sodium salt]
Second: CCOc1nc(N2CCNCC2)nc2c1sc1nc(-c3ccc(-c4cc(OC)c(OC)c(OC)c4)cc3)nc(C)c12 [4-Ethoxy-9-methyl-2-piperazin-1-yl-7-(3′,4′,5′-trimethoxybiphen-4-yl)-thieno[2,3-d:4,5-d′]dipyrimidine]
The IC50 of the first is higher: 2 to 50 nM for the first, less than 2 nM for the second.

CCOc1nc(N2CCNCC2)nc2c1sc1nc(N3CCCCC3)c3c(c12)CCCC3 [8-Ethoxy-5-piperidino-10-piperazin-1-yl-pyrimido[4′,5′:4,5]thieno[2,3-c]-1,2,3,4-tetrahydro-isoquinoline-hydrochloride] and CCOc1nc(N2CCNCC2)c2sc3nc(N4CCOCC4)cc(C)c3c2n1 [2-Ethoxy-9-methyl-7-morpholino-4-(piperazin-1-yl)-pyrido[3′,2′:4,5]thieno[3,2-d]pyrimidine] fall in the same range of IC50: 2 to 50 nM for the first, 2 to 50 nM for the second.

With CCOc1nc(N2CCNCC2)nc2c1sc1nc(N3CCN(c4ccccc4)CC3)cc(CC)c12 [4-Ethoxy-9-ethyl-7-(4-phenyl-piperazin-1-yl)-2-piperazin-1-yl-pyrido[3′,2′:4,5]thieno[3,2-d]pyrimidine] the IC50 was 2 to 50 nM.
